{"source": "PubChem BioAssay AID449762", "about": "(Southern Research Specialized Biocontainment Screening …, 2010)", "note": "Records with an inconclusive call do not appear."}
{"tested_on": "M. tuberculosis H37Rv growth inhibition, 7H9 media", "assay": "M. tuberculosis growth inhibition, HTS (AID 449762);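 further: bacterial growth assessed after seven days of incubation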", "details": "measured here: IC90 growth inhibition", "units": {"IC90": "µM"}}
{"smiles": "CCCCNc1nc(N(C)c2ccccc2)nc(-n2ccnc2)n1", "IC90": "> 25"}
{"smiles": "CCOc1ccc(-n2c(-c3ccc(Br)cc3)c[n+]3c2CCCCC3)cc1", "IC90": "> 100"}
{"smiles": "O=C(/C=C/Sc1ncn[nH]1)c1ccc(Cl)cc1", "IC90": 43.8}
{"smiles": "O=c1cc(-c2ccccc2Cl)oc2ccc([N+](=O)[O-])c(O)c12", "IC90": 15.6}
{"smiles": "C/C(CC(=O)Nc1ccc(C)c(Cl)c1)=N\\NC(=O)Cc1cnc(N)s1", "IC90": "> 100"}
{"smiles": "N#Cc1c(SCC(N)=O)nsc1SCc1ccccc1Cl", "IC90": 34.7}
{"smiles": "O=C1N/C(=N\\N=C\\c2ccccn2)SC1Cc1cccc(SC(F)F)c1", "note": "(centres undefined)", "IC90": "> 100"}
{"smiles": "COc1ccc(-c2nc(NC(=O)Cn3ccc(C(F)(F)F)n3)sc2C)cc1", "IC90": 2.92}
{"smiles": "O=C(/C=C\\c1cccs1)N1CCN(Cc2ccc3c(c2)OCO3)CC1", "IC90": 5.53}
{"smiles": "O=C1Nc2ccc(Br)cc2C12NNc1ccccc1O2", "note": "(centres undefined)", "IC90": 43.6}
{"smiles": "CC(C)(C)NC(=O)C(c1c[nH]c2ccccc12)N(C(=O)Cn1nnc(-c2ccc(F)cc2)n1)c1cccc(O)c1", "note": "(centres undefined)", "IC90": "> 100"}
{"smiles": "CCC(=O)NC(=S)Nc1ccc(NC(=O)COc2ccc(Cl)cc2Cl)cc1", "IC90": "> 100"}
{"smiles": "Cn1nc(C(C)(C)C)cc1NC(=O)Nc1cc(Cl)cc(Cl)c1", "IC90": 26.3}
{"smiles": "CC(=O)Oc1ccc(/C=N\\NC(=O)c2cc3c(ccc4ccccc43)o2)cc1", "IC90": "> 100"}
{"smiles": "O=C(/C=C/c1ccc(OCCCF)cc1)Nc1ccnc(-c2ccncc2)n1", "IC90": 68.8}
{"smiles": "CCc1ccc(-c2nn(-c3ccccc3)cc2CSC(=N)N)cc1", "IC90": 22.4}
{"smiles": "COc1nc(-c2ccccc2)cc(-c2ccc(OC)c(OC)c2)n1", "IC90": "> 100"}
{"smiles": "O=C(Nc1ccc(Oc2cccc(C(F)(F)F)c2)nc1)c1cccs1", "IC90": "> 100"}
{"smiles": "COc1cc(/C=C/C(=O)c2c(O)n(CCc3ccccc3)c(=O)[nH]c2=O)ccc1O", "IC90": 11.5}
{"smiles": "COc1ccc(-c2c(-c3cc(OC)cc(OC)c3)n(C)c3ccc(-c4ccn[nH]4)cc23)cc1", "IC90": "> 100"}
{"smiles": "Cc1ccc(/C=C(\\NC(=O)c2ccc(C)cc2)c2nc(=S)[nH][nH]2)cc1", "IC90": 48.9}
{"smiles": "Cc1ccc(Cn2c(C(CO)Nc3nc(-c4ccc(F)cc4)cs3)nc3ccccc32)cc1", "note": "(centres undefined)", "IC90": 60.2}
{"smiles": "CCCCn1c(NCc2ccc3c(c2)OCO3)nc2ccccc21", "IC90": 31.1}
{"smiles": "Cc1ccc(-n2cc(CN(C)Cc3nccn3C)c(-c3cccc(C)c3)n2)cc1", "IC90": 13.3}
{"smiles": "Cc1c(Cl)cccc1-c1ccc(CNCc2ccccn2)o1", "IC90": 4.03}
{"smiles": "CN1CCN(C2Cc3ccccc3Sc3cc(C(F)(F)F)ccc32)CC1", "note": "(centres undefined)", "IC90": 15.6}
{"smiles": "CC(/C=C/c1ccccc1)=N\\NC(N)=S", "IC90": 9.07}
{"smiles": "O=C(C[C@@H]1C/C=C\\C[C@H](NC(=O)OCC2c3ccccc3-c3ccccc32)C(=O)OC[C@H]2CCCN2C1=O)N[C@@H](CO)Cc1ccccc1", "IC90": 28.2}
{"smiles": "Nc1cc(Cl)c2nonc2c1[N+](=O)[O-]", "IC90": 6.64}
{"smiles": "CC(C)[C@H](CO)N(Cc1cccc(F)c1)c1nc(Nc2cccc(Cl)c2)c2ncn(C(C)C)c2n1", "IC90": 35.4}
{"smiles": "COc1ccc2c(c1)[C@@H]1[C@H](CO2)[C@H](c2ccccc2)[C@]2(C)C(=O)Nc3ccc(C)cc3C(=O)N12", "IC90": "> 100"}
{"smiles": "O=C(CCc1nnc(CCCc2ccccc2)o1)NCCCC1CCCC1", "IC90": 23.1}
{"smiles": "CN(CC(=O)Nc1ccc(OC(F)(F)F)cc1)C(=O)/C=C/c1cc2c(cc1[N+](=O)[O-])OCO2", "IC90": 37.9}
{"smiles": "CCCCCOc1ccc(NC2=CC(=O)CCC2)cc1", "IC90": "> 100"}
{"smiles": "COC(=O)c1ccc(NC(=O)CSc2nc3ccc(N4C(=O)C5C6C=CC(C6)C5C4=O)cc3s2)cc1", "note": "(centres undefined)", "IC90": 5.73}
{"smiles": "CCc1ccc(NC(=S)/N=C(\\N)Nc2nc(C)c3cc(CC)ccc3n2)cc1", "IC90": 40}
{"smiles": "O=C(c1cccc(-c2ccco2)c1)N1CCCC(N2CCN(c3ccc(F)cc3)CC2)C1", "note": "(centres undefined)", "IC90": 78.8}
{"smiles": "O=C(c1ccc(Cl)cc1)N1N=C(c2ccccn2)CC1(O)C(F)(F)F", "note": "(centres undefined)", "IC90": "> 100"}
{"smiles": "Cc1[nH][nH]c(=O)c1C(c1ccc(-c2ccc(Cl)c(Cl)c2)o1)c1c(C)[nH][nH]c1=O", "IC90": 85.6}
{"smiles": "Clc1ccc(CNc2nc(CN3CCOCC3)nc3scc(-c4ccccc4)c23)cc1", "IC90": 43.6}
{"smiles": "O=[N+]([O-])c1ccc(Sc2cc[n+]([O-])c3ccccc23)c([N+](=O)[O-])c1", "IC90": 24.3}
{"smiles": "CC(C)Cc1nc2oc3c(N4CCN(CCO)CC4)ncnc3c2c2c1CCCC2", "IC90": 26.1}
{"smiles": "CNc1ccc2oc(C[C@H]3O[C@@]4(CC[C@H]3C)O[C@H]([C@H](C)C(=O)c3ccc[nH]3)[C@H](C)C[C@H]4C)nc2c1C(=O)O", "IC90": 1.97}
{"smiles": "COc1cc(NC(=O)c2ccc(COc3ccccc3Br)o2)cc(OC)c1OC", "IC90": "> 100"}
{"smiles": "C(=N\\Nc1ccc2ccccc2n1)/c1ccc2c(c1)OCCO2", "IC90": 4.03}
{"smiles": "Cc1cc(-c2nnc3n2CCCCC3)c(C)n1-c1ccccc1", "IC90": 51.4}
{"smiles": "Cc1nc(-c2nc(-c3c(C(=O)NNC(=O)c4ccc(Cl)cc4)noc3C)cs2)cs1", "IC90": 18.2}
{"smiles": "c1ccc(-c2nc(N3CCCC3)nc3ccccc23)cc1", "IC90": 51.8}
{"smiles": "CN(C)c1ccc(/C=C2\\N=C(C(C)(C)C)OC2=O)cc1", "IC90": 34.5}
{"smiles": "COc1ccc(-c2cn3cc([N+](=O)[O-])ccc3n2)cc1OC", "IC90": "> 100"}
{"smiles": "CCOc1cc(CNCCCN2CCOCC2)cc(Br)c1OCC(=O)Nc1cccc(C(F)(F)F)c1", "IC90": 31.7}
{"smiles": "C/C(=N\\NC(=S)Nc1cccc(C)c1)c1cccc(N)c1", "IC90": 30.4}
{"smiles": "CN1C(=S)SC(N(O)C(=O)Nc2ccc(Cl)c(Cl)c2)C1(C)C", "note": "(centres undefined)", "IC90": 25.6}
{"smiles": "O=C1C(=O)c2ccccc2-c2ccccc21", "IC90": 6.91}
{"smiles": "CC(=O)n1cc(/C=C2/N=C(c3ccccc3)OC2=O)c2ccccc21", "IC90": 75.5}
{"smiles": "CCCCN(CCCC)CCC(O)c1cc2c(Cl)cc(Cl)cc2c2cc(C(F)(F)F)ccc12", "note": "(centres undefined)", "IC90": 25.7}
{"smiles": "COc1ccc(/C=C/CN2CCC(CO)(Cc3ccccc3Cl)CC2)cc1", "IC90": 26.6}
{"smiles": "O=c1[nH]c(CSc2cccc[n+]2[O-])nc2ccccc12", "IC90": "> 100"}
{"smiles": "NC1=NC2(CCC(c3ccccc3)CC2)n2c(nc3ccccc32)N1", "note": "(centres undefined)", "IC90": 38.3}
{"smiles": "CC(=O)Nc1ccc(N2C(C(C)=O)=NN(c3ccc(Cl)cc3)C2c2sccc2C)cc1", "note": "(centres undefined)", "IC90": 93.1}
{"smiles": "CCc1ccc(NC(=O)CSc2nc3n[nH]c(C)c3c(=N)n2-c2cccc(OC)c2)cc1", "IC90": 37.1}
{"smiles": "Cc1ccnc(NC(=O)c2cc3ccccc3o2)c1", "IC90": "> 100"}
{"smiles": "COc1ccc(CN(CCC(c2ccccc2)c2ccc(OC(C)C)cc2)C(=O)CCl)cc1OC", "note": "(centres undefined)", "IC90": 12.5}
{"smiles": "COc1ccc(OC)c(C(=O)NC(CC(N)=O)c2ccc(NCc3ccc(F)c(F)c3)c([N+](=O)[O-])c2)c1", "note": "(centres undefined)", "IC90": 23.6}
{"smiles": "CC(=O)N1C(Nc2ccc(Cl)cc2)CCN1c1ccccc1", "note": "(centres undefined)", "IC90": "> 100"}
{"smiles": "CCCCCC(=O)N/N=C(\\C)c1ccccn1", "IC90": 33.1}
{"smiles": "CN(C)CCCN(C(=O)c1ccc([N+](=O)[O-])s1)c1nc2cc3c(cc2s1)OCCO3", "IC90": 45.5}
{"smiles": "Cn1c(CNc2ccccc2O)nc2ccccc21", "IC90": 3.52}
{"smiles": "CN(C)CCCNC(=O)c1ccc(-c2nc(-c3ccc(Cl)cc3)cs2)cc1", "IC90": 42.3}
{"smiles": "CN1C2CCC1/C(=C/c1ccccn1)C(=O)/C2=C\\c1ccccn1", "IC90": 25.8}
{"smiles": "CC1(C)Cc2c(cnn2-c2ccccc2)-c2c1c1ccccc1n2CC(O)CCl", "note": "(centres undefined)", "IC90": "> 100"}
{"smiles": "CCn1nc(NC(=O)c2ccncc2)c2cc3cc(C)ccc3nc21", "IC90": 47.3}
{"smiles": "COc1cccc(-n2nnc3c(=O)n(CC(=O)N4CCC(Cc5ccccc5)CC4)cnc32)c1", "IC90": 36.7}
{"smiles": "O=[N+]([O-])c1ccc(-n2cnc3ccccc32)c([N+](=O)[O-])c1", "IC90": 5.96}
{"smiles": "CN1CCN(/N=C/c2c3ccccc3c(Cl)c3ccccc23)CC1", "IC90": "> 100"}
{"smiles": "CCN(Cc1ccncc1)Cc1nc(-c2ccc(C(=O)OC)cc2)no1", "IC90": 41.6}
{"smiles": "O=C(Oc1ccc(-c2cn3c(n2)SCC3)cc1)c1ccccc1", "IC90": "> 100"}
{"smiles": "COc1ccc(-c2nc(CN3CCN(c4cc(C)nc(C)c4)CC3)c(C)o2)c2ccccc12", "IC90": 25.2}
{"smiles": "CC(=O)N(Cc1ccc(F)cc1)C1=C(NCCc2ccccc2)C(=O)c2ccccc2C1=O", "IC90": 6.59}
{"smiles": "Fc1ccc(N/N=C2/CC(c3ccccc3)Oc3ccccc32)c(F)c1", "note": "(centres undefined)", "IC90": "> 100"}
{"smiles": "CCOC(=O)c1c(-c2ccc(OC)cc2)csc1NC(=O)CNCc1ccco1", "IC90": 16.4}
{"smiles": "COc1cc(C)c(/C=C/C(C)=C/C=C/C(C)=C/C(=O)O)c(C)c1C", "IC90": 6.76}
{"smiles": "CC1(C)C2CCC1(C)C(OCC[N+](C)(C)CC(=O)OC1CCCCC1)C2", "note": "(centres undefined)", "IC90": 12.2}
{"smiles": "CCCSc1nnc(Sc2nnnn2-c2ccccc2)s1", "IC90": 33}
